The assay addresses Human immunodeficiency virus type 1 reverse transcriptase (Human immunodeficiency virus 1, UniProt Q72547). Nature of the assay: Inhibition of HIV1 reverse transcriptase incubated for 1 hr by colorimetric assay.
A word on the IC50: it is the concentration needed to halve the response being measured. Read a high IC50 as a need for much substance. Molecule `O=C1S[C@H]2[C@H](O)[C@H](O)[C@H](O)CN2C1=O` returned an IC50 of 4.22 µM.
Take `O=C1C(O)S[C@H]2[C@H](O)[C@H](O)[C@H](O)CN12` (some centres not stated): the 50% inhibitory concentration (IC50) came out at 1.74 µM.
With `O=C1S[C@@H]2[C@H](O)[C@H](O)[C@H](O)CN2C1=O` the figure was 5.2 µM; with `O=C1CS[C@@H]2[C@H](O)[C@H](O)[C@H](O)CN12`, 19 µM.
Molecule `O=C1C[S+]([O-])[C@@H]2[C@H](O)[C@H](O)[C@H](O)CN12` (some centres not stated) yielded an IC50 of 2.45 µM.
Consider `O=C1CS[C@H]2[C@H](O)[C@H](O)[C@H](O)CN12`, for which it took 13 µM to reach half-maximal inhibition (IC50).
`O=C1C[S+]([O-])[C@H]2[C@H](O)[C@H](O)[C@H](O)CN12` (some centres not stated) returned an IC50 of 10.2 µM.

(Values after ChEMBL document CHEMBL2203139, “Synthetic bicyclic iminosugar derivatives fused thiazolidin-4-one as new potential HIV-RT inhibitors” (Bioorg Med Chem Lett, 2012).)
